# Experimental data published in patent US12214092B2, “Systems and methods for treating biological fluids” (Cerus Corporation, priority 2017, dated 2025).
# Tests used:
# platelets = experiment: Platelet quality, platelets in 100% plasma, amotosalen 30-110 μM, 340 nm device ~7.2 J/cm^2
# Description: Multiple donor platelet units in 10000 plasma (5 units, ˜278-391 mL) were pooled and split into 5 units of ˜285 mL each, to be used as an untreated control, or treated with amotosalen at different concentrations, with ultraviolet A illumination using the 340 nm device. Amotosalen was added to a concentration of 30, 60, 90 or 110 μM, then pre-illumination (pre-UV) samples were removed for analysis, and the remainder of the units subjected to illumination at ˜7.2 J/cm^2. Post-illumination (Post-UV) samples were then removed for post-treatment analysis.
# [1] = S-59 photoconversion in apheresis platelets in 100% plasma, 15 μM S-59, HPLC; format: physicochemical
# Description: Additional units were illuminated with the INT-100 device at ˜3.6 J/cm^2 for comparison or maintained as an untreated control.
# feline calicivirus (FCV) = conditions: previously reported (Irsch et al. 2011), 150 μM S-59 with broad spectrum UVA; cited from earlier work
compound,measurement,setting,value
"Cc1oc2c(C)c3oc(=O)cc(C)c3cc2c1COCCN [S-59, 3-(2-aminoethoxymethyl)-2,5,9-trimethylfuro[3,2-g]chromen-7-one]",Glucose,"platelets; 30 μM, D3",14.9 mmol/L
same,LDH,"platelets; 30 μM, D3",14.5 LDH IU/10^11 platelets
same,Lactate,"platelets; 30 μM, D3",6.9 mmol/L
same,Platelet counts,"platelets; 30 μM, D3",1155 x10^3 cells/μL
same,Platelet lysis,"platelets; 30 μM, D3",5.22%
same,pCO2 at 37° C.,"platelets; 30 μM, D3",38.1 mm Hg
same,pH at 22° C.,"platelets; 30 μM, D3",7.43
same,pH at 37° C.,"platelets; 30 μM, D3",7.21
same,pO2 at 37° C.,"platelets; 30 μM, D3",74.6 mm Hg
same,Glucose,"platelets; 30 μM, D7",11.9 mmol/L
same,LDH,"platelets; 30 μM, D7",17.4 LDH IU/10^11 platelets
same,Lactate,"platelets; 30 μM, D7",12.1 mmol/L
same,Platelet counts,"platelets; 30 μM, D7",1155 x10^3 cells/μL
same,Platelet lysis,"platelets; 30 μM, D7",6.10%
same,pCO2 at 37° C.,"platelets; 30 μM, D7",31.2 mm Hg
same,pH at 22° C.,"platelets; 30 μM, D7",7.32
same,pH at 37° C.,"platelets; 30 μM, D7",7.10
same,pO2 at 37° C.,"platelets; 30 μM, D7",78.5 mm Hg
same,Glucose,"platelets; 30 μM, Post-UV",15.9 mmol/L
same,LDH,"platelets; 30 μM, Post-UV",15.0 LDH IU/10^11 platelets
same,Lactate,"platelets; 30 μM, Post-UV",5.7 mmol/L
same,Platelet counts,"platelets; 30 μM, Post-UV",1115 x10^3 cells/μL
same,Platelet lysis,"platelets; 30 μM, Post-UV",5.31%
same,pCO2 at 37° C.,"platelets; 30 μM, Post-UV",50.2 mm Hg
same,pH at 22° C.,"platelets; 30 μM, Post-UV",7.37
same,pH at 37° C.,"platelets; 30 μM, Post-UV",7.15
same,pO2 at 37° C.,"platelets; 30 μM, Post-UV",13.9 mm Hg
same,Glucose,"platelets; 30 μM, Pre-UV",16.0 mmol/L
same,LDH,"platelets; 30 μM, Pre-UV",13.7 LDH IU/10^11 platelets
same,Lactate,"platelets; 30 μM, Pre-UV",5.4 mmol/L
same,Platelet counts,"platelets; 30 μM, Pre-UV",1200 x10^3 cells/μL
same,Platelet lysis,"platelets; 30 μM, Pre-UV",4.92%
same,pCO2 at 37° C.,"platelets; 30 μM, Pre-UV",52.4 mm Hg
same,pH at 22° C.,"platelets; 30 μM, Pre-UV",7.36
same,pH at 37° C.,"platelets; 30 μM, Pre-UV",7.14
same,pO2 at 37° C.,"platelets; 30 μM, Pre-UV",28.6 mm Hg
same,Glucose,"platelets; 60 μM, D3",15.0 mmol/L
same,LDH,"platelets; 60 μM, D3",13.9 LDH IU/10^11 platelets
same,Lactate,"platelets; 60 μM, D3",6.8 mmol/L
same,Platelet counts,"platelets; 60 μM, D3",1152 x10^3 cells/μL
same,Platelet lysis,"platelets; 60 μM, D3",5.15%
same,pCO2 at 37° C.,"platelets; 60 μM, D3",38.1 mm Hg
same,pH at 22° C.,"platelets; 60 μM, D3",7.43
same,pH at 37° C.,"platelets; 60 μM, D3",7.20
same,pO2 at 37° C.,"platelets; 60 μM, D3",65.8 mm Hg
same,Glucose,"platelets; 60 μM, D7",11.6 mmol/L
same,LDH,"platelets; 60 μM, D7",36.5 LDH IU/10^11 platelets
same,Lactate,"platelets; 60 μM, D7",11.8 mmol/L
same,Platelet counts,"platelets; 60 μM, D7",1041 x10^3 cells/μL
same,Platelet lysis,"platelets; 60 μM, D7",11.82%
same,pCO2 at 37° C.,"platelets; 60 μM, D7",31.2 mm Hg
same,pH at 22° C.,"platelets; 60 μM, D7",7.32
same,pH at 37° C.,"platelets; 60 μM, D7",7.09
same,pO2 at 37° C.,"platelets; 60 μM, D7",78.0 mm Hg
same,Glucose,"platelets; 60 μM, Post-UV",15.9 mmol/L
same,LDH,"platelets; 60 μM, Post-UV",14.3 LDH IU/10^11 platelets
same,Lactate,"platelets; 60 μM, Post-UV",5.6 mmol/L
same,Platelet counts,"platelets; 60 μM, Post-UV",1117 x10^3 cells/μL
same,Platelet lysis,"platelets; 60 μM, Post-UV",5.10%
same,pCO2 at 37° C.,"platelets; 60 μM, Post-UV",49.2 mm Hg
same,pH at 22° C.,"platelets; 60 μM, Post-UV",7.37
same,pH at 37° C.,"platelets; 60 μM, Post-UV",7.15
same,pO2 at 37° C.,"platelets; 60 μM, Post-UV",20.4 mm Hg
same,Glucose,"platelets; 60 μM, Pre-UV",16.2 mmol/L
same,LDH,"platelets; 60 μM, Pre-UV",13.6 LDH IU/10^11 platelets
same,Lactate,"platelets; 60 μM, Pre-UV",5.4 mmol/L
same,Platelet counts,"platelets; 60 μM, Pre-UV",1160 x10^3 cells/μL
same,Platelet lysis,"platelets; 60 μM, Pre-UV",4.71%
same,pCO2 at 37° C.,"platelets; 60 μM, Pre-UV",52.4 mm Hg
same,pH at 22° C.,"platelets; 60 μM, Pre-UV",7.36
same,pH at 37° C.,"platelets; 60 μM, Pre-UV",7.14
same,pO2 at 37° C.,"platelets; 60 μM, Pre-UV",32.7 mm Hg
same,Glucose,"platelets; 90 μM, D3",14.9 mmol/L
same,Lactate,"platelets; 90 μM, D3",7.3 mmol/L
same,Platelet counts,"platelets; 90 μM, D3",1157 x10^3 cells/μL
same,Platelet lysis,"platelets; 90 μM, D3",4.88%
same,pCO2 at 37° C.,"platelets; 90 μM, D3",40.3 mm Hg
same,pH at 22° C.,"platelets; 90 μM, D3",7.39
same,pH at 37° C.,"platelets; 90 μM, D3",7.17
same,pO2 at 37° C.,"platelets; 90 μM, D3",82.2 mm Hg
same,Glucose,"platelets; 90 μM, D7",10.6 mmol/L
same,Lactate,"platelets; 90 μM, D7",13.6 mmol/L
same,Platelet counts,"platelets; 90 μM, D7",1199 x10^3 cells/μL
same,Platelet lysis,"platelets; 90 μM, D7",5.42%
same,pCO2 at 37° C.,"platelets; 90 μM, D7",33.5 mm Hg
same,pH at 22° C.,"platelets; 90 μM, D7",7.23
same,pH at 37° C.,"platelets; 90 μM, D7",7.00
same,pO2 at 37° C.,"platelets; 90 μM, D7",87.9 mm Hg
same,Glucose,"platelets; 90 μM, Post-UV",15.9 mmol/L
same,Lactate,"platelets; 90 μM, Post-UV",5.7 mmol/L
same,Platelet counts,"platelets; 90 μM, Post-UV",1115 x10^3 cells/μL
same,Platelet lysis,"platelets; 90 μM, Post-UV",5.13%
same,pCO2 at 37° C.,"platelets; 90 μM, Post-UV",48.5 mm Hg
same,pH at 22° C.,"platelets; 90 μM, Post-UV",7.37
same,pH at 37° C.,"platelets; 90 μM, Post-UV",7.15
same,pO2 at 37° C.,"platelets; 90 μM, Post-UV",24.1 mm Hg
same,Glucose,"platelets; 90 μM, Pre-UV",15.9 mmol/L
same,Lactate,"platelets; 90 μM, Pre-UV",5.3 mmol/L
same,Platelet counts,"platelets; 90 μM, Pre-UV",1165 x10^3 cells/μL
same,Platelet lysis,"platelets; 90 μM, Pre-UV",4.97%
same,pCO2 at 37° C.,"platelets; 90 μM, Pre-UV",50.8 mm Hg
same,pH at 22° C.,"platelets; 90 μM, Pre-UV",7.37
same,pH at 37° C.,"platelets; 90 μM, Pre-UV",7.14
same,pO2 at 37° C.,"platelets; 90 μM, Pre-UV",54.6 mm Hg
same,Glucose,"platelets; 110 μM, D3",14.7 mmol/L
same,LDH,"platelets; 110 μM, D3",17.0 LDH IU/10^11 platelets
same,Lactate,"platelets; 110 μM, D3",7.3 mmol/L
same,Platelet counts,"platelets; 110 μM, D3",1103 x10^3 cells/μL
same,Platelet lysis,"platelets; 110 μM, D3",5.90%
same,pCO2 at 37° C.,"platelets; 110 μM, D3",38.6 mm Hg
same,pH at 22° C.,"platelets; 110 μM, D3",7.40
same,pH at 37° C.,"platelets; 110 μM, D3",7.18
same,pO2 at 37° C.,"platelets; 110 μM, D3",69.9 mm Hg
same,Glucose,"platelets; 110 μM, D7",10.4 mmol/L
same,LDH,"platelets; 110 μM, D7",16.0 LDH IU/10^11 platelets
same,Lactate,"platelets; 110 μM, D7",13.8 mmol/L
same,Platelet counts,"platelets; 110 μM, D7",1153 x10^3 cells/μL
same,Platelet lysis,"platelets; 110 μM, D7",6.13%
same,pCO2 at 37° C.,"platelets; 110 μM, D7",31.7 mm Hg
same,pH at 22° C.,"platelets; 110 μM, D7",7.24
same,pH at 37° C.,"platelets; 110 μM, D7",7.01
same,pO2 at 37° C.,"platelets; 110 μM, D7",90.5 mm Hg
same,Glucose,"platelets; 110 μM, Post-UV",16.0 mmol/L
same,LDH,"platelets; 110 μM, Post-UV",12.0 LDH IU/10^11 platelets
same,Lactate,"platelets; 110 μM, Post-UV",5.4 mmol/L
same,Platelet counts,"platelets; 110 μM, Post-UV",1239 x10^3 cells/μL
same,Platelet lysis,"platelets; 110 μM, Post-UV",4.63%
same,pCO2 at 37° C.,"platelets; 110 μM, Post-UV",48.1 mm Hg
same,pH at 22° C.,"platelets; 110 μM, Post-UV",7.37
same,pH at 37° C.,"platelets; 110 μM, Post-UV",7.14
same,pO2 at 37° C.,"platelets; 110 μM, Post-UV",189.7 mm Hg
same,Glucose,"platelets; 110 μM, Pre-UV",15.9 mmol/L
same,LDH,"platelets; 110 μM, Pre-UV",12.4 LDH IU/10^11 platelets
same,Lactate,"platelets; 110 μM, Pre-UV",5.3 mmol/L
same,Platelet counts,"platelets; 110 μM, Pre-UV",1209 x10^3 cells/μL
same,Platelet lysis,"platelets; 110 μM, Pre-UV",4.61%
same,pCO2 at 37° C.,"platelets; 110 μM, Pre-UV",51.8 mm Hg
same,pH at 22° C.,"platelets; 110 μM, Pre-UV",7.36
same,pH at 37° C.,"platelets; 110 μM, Pre-UV",7.13
same,pO2 at 37° C.,"platelets; 110 μM, Pre-UV",88.6 mm Hg
same,S-59 concentration post-illumination,"[1]; 340 nm LED 1× (~3.6 J/cm^2), <LOQ",0.86 µM
same,S-59 concentration post-illumination,"[1]; 340 nm LED 2× (~7.2 J/cm^2), <LOQ",0.19 µM
same,S-59 concentration post-illumination,"[1]; 340 nm LED 3× (~10.8 J/cm^2), <LOQ",0.00 µM
same,S-59 concentration post-illumination,"[1]; INT-100, ~3.6 J/cm^2",4.11 µM
same,reduction in titer of caliciviruses (FCV),feline calicivirus (FCV),1.7-2.4 log 10
